Molecules are shown by their SMILES. Bounds are passed on as bounds.

A short description of series [1]: Differential scanning calorimetry (DSC), enthalpy of melting. The following applies: 40-400° C., 10° C. per minute, initial heating curve. In kind it is physicochemical. How it is done:
(§1) To determine optimal process temperature, differential scanning calorimetry (DSC) and thermogravimetric analysis (TGA) were performed on the pure components, as well as on the cocrystal, shown in FIG. 2. A TA instruments DSC Q200 was used with a 40-400° C. heating range and 10° C. per minute heating rate. Only initial heating curves were collected and analyzed, without a cooling and secondary heating step. The initial melting peak temperature and enthalpy of melting values for each sample was determined using Universal Analysis software from TA instruments. A TA Instruments TGA Q500 was used with a 25-400° C. heating range and a 10° C. per minute heating rate. Powder was placed into a 5 mm diameter aluminum sample pan centered in a platinum hang pan. Enthalpies of sublimation were determined by plotting the logarithm of mass loss rate (−dm/dt) versus inverse temperature (1000/T).
A general note: In DSC, transitions show as peaks or steps in heat flow.

The nature of series [2]: Thermogravimetric analysis (TGA), enthalpy of sublimation from Arrhenius plot of mass loss rate. In kind it is physicochemical. The conditions noted are these: for Sublimation ΔHsub: 25-400° C., 10° C. per minute, slope of log mass loss rate versus 1000/T; for Sublimation Tlow: lower temperature of sublimation range; for Sublimation Thigh: upper temperature of sublimation range. The method, then: as §1

A short description of series [3]: Thermal stability (decomposition temperature). The series is classed as physicochemical. The following applies: heating. An excerpt: Thermal analysis provides a good basis to determine the process window for successful cocrystal de-sublimation. The target temperature for the process is preferably in a region where sublimed API and conformer readily remain in the vapor phase. Too low, and the less volatile compound may de-sublimate within the heated tube, altering the ratio of API to conformer reaching a cooled surface (26). Moreover, decreasing temperature reduces sublimation rate and thus restricts the amount of material that can be processed. The upper temperature limit of the process is largely dictated by the thermal stability of each component. For example, CBZ may begin to decompose appreciably before reaching 180° C., limiting the heating temperature to well below its melting temperature. […] On the other hand, IND is stable up to 248° C., well above its melting temperature (27).

The conditions of series [4]: heating; reference (27); cited from earlier work.

With `NC(=O)N1c2ccccc2C=Cc2ccccc21` [CBZ, carbamazepine], the “Melting ΔHmelt” value in series [1] worked out at 6.33 kcal/mol. In series [2], the “Sublimation ΔHsub” value was determined as 48.59 kcal/mol, the “Sublimation Tlow” value was found to be 220 °C and the “Sublimation Thigh” value came to 280 °C. The “temperature before which decomposition may begin appreciably” value in series [3] was below 180 °C.

With `COc1ccc2c(c1)c(CC(=O)O)c(C)n2C(=O)c1ccc(Cl)cc1` [IND, indomethacin], the “Melting ΔHmelt” value in series [1] is 8.01 kcal/mol. Moreover, the “stable up to (temperature)” value in series [4] is 248 °C. Moreover, in series [2], the “Sublimation ΔHsub” value was determined as 27.29 kcal/mol, the “Sublimation Tlow” value was 200 °C and the “Sublimation Thigh” value stood at 320 °C.

With `O=C1NS(=O)(=O)c2ccccc21` [SAC, saccharine], the “Melting ΔHmelt” value in series [1] was 8.68 kcal/mol. Also, in series [2], the “Sublimation ΔHsub” value came to 25.57 kcal/mol, the “Sublimation Tlow” value came to 200 °C and the “Sublimation Thigh” value is 290 °C.

In the case of `O=C(O)CCC(=O)O` [SUC, succinic acid], the “Melting ΔHmelt” value in series [1] was 7.89 kcal/mol. In series [2], the “Sublimation ΔHsub” value came to 23.1 kcal/mol, the “Sublimation Tlow” value came to 140 °C and the “Sublimation Thigh” value is 230 °C.
